Where a SMILES comes first, the peptide text is derived from it. Bridges are numbered along the chain shown (N, C = ends).
What was measured:
IDE = target: T1, IDE (Homo sapiens, UniProt P14735); test: IDE protease activity assay with FRET1 substrate; assay type: biochemical; conditions: Ki converted from IC50 with the Cheng-Prusoff equation
T1 construct: made in house; host or cells: bacteria
T1 sequence (P14735 1-1019): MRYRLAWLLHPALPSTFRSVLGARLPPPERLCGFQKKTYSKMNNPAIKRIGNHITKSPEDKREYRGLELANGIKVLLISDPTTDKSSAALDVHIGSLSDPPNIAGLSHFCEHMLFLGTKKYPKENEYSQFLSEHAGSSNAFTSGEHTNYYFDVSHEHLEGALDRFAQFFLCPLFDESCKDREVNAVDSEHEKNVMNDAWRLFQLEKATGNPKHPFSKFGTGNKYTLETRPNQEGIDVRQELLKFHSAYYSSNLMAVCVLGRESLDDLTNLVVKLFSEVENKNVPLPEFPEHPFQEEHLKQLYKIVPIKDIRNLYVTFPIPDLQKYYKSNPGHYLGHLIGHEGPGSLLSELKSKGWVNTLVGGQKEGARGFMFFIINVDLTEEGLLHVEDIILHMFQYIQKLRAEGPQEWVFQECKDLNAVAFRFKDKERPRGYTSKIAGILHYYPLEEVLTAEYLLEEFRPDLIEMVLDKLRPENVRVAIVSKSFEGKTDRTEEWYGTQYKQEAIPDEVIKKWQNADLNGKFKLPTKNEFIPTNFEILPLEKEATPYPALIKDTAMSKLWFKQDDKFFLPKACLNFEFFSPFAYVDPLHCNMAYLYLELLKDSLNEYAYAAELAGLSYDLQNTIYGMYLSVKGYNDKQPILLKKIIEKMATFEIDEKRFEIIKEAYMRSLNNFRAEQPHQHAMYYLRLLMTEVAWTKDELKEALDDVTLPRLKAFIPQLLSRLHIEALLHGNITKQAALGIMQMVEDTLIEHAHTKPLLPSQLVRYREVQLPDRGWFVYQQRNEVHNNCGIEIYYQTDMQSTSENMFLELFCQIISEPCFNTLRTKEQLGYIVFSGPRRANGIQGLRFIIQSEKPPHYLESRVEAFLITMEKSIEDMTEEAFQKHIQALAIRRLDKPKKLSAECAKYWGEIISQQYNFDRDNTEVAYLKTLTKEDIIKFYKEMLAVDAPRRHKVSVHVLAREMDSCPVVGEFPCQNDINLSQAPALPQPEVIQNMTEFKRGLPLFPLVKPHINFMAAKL

[1] = test system: alpha-1 type I collagen (COL1A1) mRNA in primary murine skin fibroblasts; test: COL1A1 mRNA quantification by RT-PCR; assay type: cell-based, mouse; conditions: P12-3A 100 μM, 4 d, confluent monolayers
Protocol: FIG. 4A-F. Effects of P12-3A on cultured skin cells. A, Insulin concentrations as a function of time in logarithmically growing primary murine skin fibroblasts in the absence or presence of P12-3A (100 μM). […] Data are mean±SEM of 4 independent replications. *P<0.05, **P<0.01. B, Proliferation of cells in the absence or presence of P12-3A (100 μM). […] C,D,E, P12-3A (100 μM) potentiates insulin-induced collagen production in skin fibroblasts. Collagen production was assessed by COL1A1 mRNA levels (C), levels of hydroxyproline secreted into the medium (D), and cell-associated mature alpha-1 type I collagen levels detected by Western blotting (E). […] Migration of HaCaT cells 48 h after induction of a scratch wound in the presence of the indicated quantities of insulin and/or P12-3A (100 μM). […]
Insulin promotes wound healing and overall skin health by affecting a number of processes, including cell proliferation (2,3), cell migration (5,6), and the production and secretion of ECM components, particularly type I collagen (7-13). We therefore assessed the ability of P12-3A to influence these processes in cultured skin fibroblasts and keratinocytes. To that end, primary mouse skin fibroblasts were grown for 4 d in multiple concentrations of insulin in the presence or absence of P12-3A, and insulin concentration over time was monitored by ELISA. […]

Question: `CC(C)C[C@H](NC(=O)[C@H](CO)NC(=O)[C@@H](N)CCC(N)=O)C(=O)N1CCC[C@H]1C(=O)N[C@@H](Cc1c[nH]c2ccccc12)C(=O)N[C@H]1CSSC[C@@H](C(=O)N[C@H](C(=O)N[C@H](C(N)=O)[C@@H](C)O)C(C)C)NC(=O)[C@H](Cc2c[nH]cn2)NC(=O)[C@@H]2CCCN2C(=O)[C@H](Cc2ccc(O)cc2)NC1=O` [Peptide P12-3A] (H-QSLPWCYPHCVT-NH2; disulfide 6-10 (inferred)) was tested. Which Ki (IDE) did it give?
Answer: 10 ± 0.4 µM

Question: What about the “COL1A1 mRNA levels” value [1] of the same compound?
Answer: ~2.6 times the levels of untreated cells
